Source: patent US20150105252A1, “SUBSTITUTED PYRAZOLES AS HERBICIDES” (E I DU PONT DE NEMOURS AND COMPANY, priority 2013, published 2015)

How the values were obtained:
[1] = system: velvetleaf; test: Test A preemergence; format: in vivo, Abutilon theophrasti
How it was run: (§1)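 Greenhouse test in loam soil/sand blend; compounds formulated in non-phytotoxic solvent with surfactant, applied as preemergence directed soil spray or postemergence to plants 2–10 cm tall at one- to two-leaf stage. Injury rated visually versus untreated controls after approximately 10 days on a 0 (no effect) to 100 (complete control) scale.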

[2] = system: corn; test: Test A preemergence; format: in vivo, Zea mays
How it was run: as §1

[3] = system: velvetleaf; test: Test C preemergence; format: in vivo, Abutilon theophrasti
Source text: (§2) Seeds of plant species selected from blackgrass (Alopecurus myosuroides), ryegrass, Italian (Italian ryegrass, Lolium multiflorum), wheat (winter wheat, Triticum aestivum), galium (catchweed bedstraw, Galium aparine), corn (Zea mays), crabgrass, large (large crabgrass, Digitaria sanguinalis), foxtail, giant (giant foxtail, Setaria faberii), johnsongrass (Sorghum halepense), lambsquarters (Chenopodium album), morningglory (Ipomoea coccinea), nutsedge, yellow (yellow nutsedge, Cyperus esculentus), pigweed (redroot pigweed, Amaranthus retroflexus), ragweed (common ragweed, Ambrosia elation), soybean (Glycine max), barnyardgrass (Echinochloa crus-galli), oilseed rape (Brassica napus), waterhemp (common waterhemp, Amaranthus rudis), oat, wild (wild oat, Avena fatua), kochia (Kochia scoparia), Surinam grass (Brachiaria decumbens), foxtail, green (green foxtail, Setaria viridis), goosegrass (Eleusine indica), bromegrass, downy (downy bromegrass, Bromus tectorum), nightshade (eastern black nightshade, Solanum ptycanthum), cocklebur (common cocklebur, Xanthium strumarium), cupgrass, woolly (woolly cupgrass, Eriochloa villosa), bermudagrass (Cynodon dactylon), sunflower, (common oilseed sunflower, Helianthus annuus), Russian thistle (Salsola kali), and velvetleaf (Abutilon theophrasti) were planted into a blend of loam soil and sand and treated preemergence with test chemicals formulated in a non-phytotoxic solvent mixture which included a surfactant.
(§3) At the same time, plants selected from these crop and weed species and also chickweed (common chickweed, Stellaria media), canarygrass (littleseed canarygrass, Phalaris minor), and deadnettle (henbit deadnettle, Lamium amplexicaule), were planted in pots containing Redi-Earth® planting medium (Scotts Company, 14111 Scottslawn Road, Marysville, Ohio 43041) comprising spaghnum peat moss, vermiculite, wetting agent and starter nutrients and treated with postemergence applications of test chemicals formulated in the same manner. Plants ranged in height from 2 to 18 cm (1- to 4-leaf stage) for postemergence treatments. Treated plants and controls were maintained in a greenhouse for 13 to 15 days, after which time all species were compared to controls and visually evaluated. Plant response ratings, summarized in Table C, are based on a scale of 0 to 100 where 0 is no effect and 100 is complete control. A dash (-) response means no test result.

[4] = system: rice; test: Test B flood; format: in vivo, Oryza sativa; conditions: 250 g ai/ha, visual rating on 0 to 100 scale (0 no effect, 100 complete control), 13 to 15 days
How it was run: (§4)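 Greenhouse assay lasting 13 to 15 days. Treatment was into water flooding pots 3 cm deep, at the 2-leaf stage, with that level sustained afterwards. Scores compare treated with control plants visually, 100 denoting complete control and 0 no effect; a dash marks no test result.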

[5] = system: foxtail, giant; test: Test A preemergence; format: in vivo, Setaria faberii
How it was run: as §1

[6] = system: crabgrass, large; test: Test C preemergence; format: in vivo, Digitaria sanguinalis
How it was run: (§5)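 In this greenhouse assay, seeded soil (loam plus sand) or emerged seedlings in peat-vermiculite medium were treated with formulated compound. Roughly two weeks later (13–15 days), each species was scored visually relative to controls, from 0 for no effect to 100 for complete control.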

[7] = system: wheat; test: Test C preemergence; format: in vivo, Triticum aestivum
Source text: as §2, §3

[8] = system: pigweed; test: Test A postemergence; format: in vivo, Amaranthus retroflexus
How it was run: as §1

[9] = system: sedge, umbrella; test: Test B flood; format: in vivo, Cyperus difformis; conditions: 250 g ai/ha, visual rating on 0 to 100 scale (0 no effect, 100 complete control), 13 to 15 days
How it was run: as §4

[10] = system: velvetleaf; test: Test A postemergence; format: in vivo, Abutilon theophrasti
How it was run: as §1

[11] = system: velvetleaf; test: Test C postemergence; format: in vivo, Abutilon theophrasti; conditions: postemergence
How it was run: as §5

[12] = system: wheat; test: Test C postemergence; format: in vivo, Triticum aestivum; conditions: postemergence
How it was run: as §5

[13] = system: johnsongrass; test: Test C postemergence; format: in vivo, Sorghum halepense; conditions: for Johnsongrass plant response rating: scale 0 to 100
How it was run: as §5

[14] = system: lambsquarters; test: Test C postemergence; format: in vivo, Chenopodium album; conditions: for Lambsquarters plant response rating: scale 0 to 100
How it was run: as §5

[15] = preemergence, 125 g ai/ha, visual injury, 0 to 100 scale, approx. 10 days
[16] = preemergence, 500 g ai/ha, visual injury after approx. 10 days, 0 to 100 scale (0 no effect, 100 complete control)
[17] = Preemergence, 4 g ai/ha, scale 0 to 100
[18] = Preemergence, 8 g ai/ha, scale 0 to 100
[19] = Preemergence, 16 g ai/ha, scale 0 to 100
[20] = preemergence, 31 g ai/ha, visual rating, scale 0 to 100 (0 no effect, 100 complete control), 13 to 15 days
[21] = Postemergence, 500 g ai/ha, 0 to 100 scale (0 no effect, 100 complete control)
[22] = postemergence, 125 g ai/ha, about 10 days, visual rating on 0 to 100 scale (0 no effect, 100 complete control)
[23] = Preemergence, 500 g ai/ha, 0 to 100 scale, 0 no effect, 100 complete control
[24] = 250 g ai/ha, scale 0 to 100 (0 no effect, 100 complete control)
[25] = 125 g ai/ha, scale 0 to 100, 0 no effect, 100 complete control
[26] = preemergence, 31 g ai/ha, scale 0 to 100 (0 no effect, 100 complete control), 13 to 15 days
[27] = preemergence, 62 g ai/ha, 13 to 15 days, scale 0 to 100, 0 = no effect, 100 = complete control
[28] = preemergence, 125 g ai/ha, scale 0 to 100, 0 is no effect, 100 is complete control
[29] = postemergence, 250 g ai/ha, scale 0 to 100 (0 no effect, 100 complete control)
[30] = postemergence, 125 g ai/ha, scale 0 to 100, 0 no effect, 100 complete control
[31] = Postemergence, 500 g ai/ha, visual rating after approx. 10 days, 0 to 100 scale (0 no effect, 100 complete control)
[32] = preemergence, 125 g ai/ha, visual injury approx. 10 days after treatment
[33] = preemergence, 62 g ai/ha, scale 0 to 100 (0 no effect, 100 complete control), 13 to 15 days
[34] = preemergence, 125 g ai/ha, 13 to 15 days, scale 0 to 100, 0 = no effect, 100 = complete control

CCOc1cc(C(=O)NCC(F)(F)F)nn1Cc1cc(C(F)(F)F)nn1C [Compound 140]
Velvetleaf plant response rating [1, 15]: 60 | Velvetleaf plant response rating [1, 16]: 100 | Corn plant response rating [2, 15]: 10 | Corn plant response rating [2, 16]: 80 | Plant response rating, Velvetleaf [3, 17]: 0 | Plant response rating, Velvetleaf [3, 18]: 5 | Plant response rating, Velvetleaf [3, 19]: 10 | Velvetleaf plant response rating [3, 20]: 45 | Plant response rating, Rice [4]: 40 | Foxtail, Giant plant response rating [5, 15]: 100 | Foxtail, Giant plant response rating [5, 16]: 100 | Plant response rating, Crabgrass, Large [6, 17]: 45 | Plant response rating, Crabgrass, Large [6, 18]: 55 | Plant response rating, Crabgrass, Large [6, 19]: 75 | Crabgrass, Large plant response rating [6, 20]: 98 | Plant response rating, Wheat [7, 17]: 0 | Plant response rating, Wheat [7, 18]: 0 | Plant response rating, Wheat [7, 19]: 0 | Wheat plant response rating [7, 20]: 35 | Pigweed plant response rating [8, 21]: 100 | Pigweed plant response rating [8, 22]: 100 | Plant response rating, Sedge, Umbrella [9]: 95 | Velvetleaf plant response rating [10, 21]: 80 | Velvetleaf plant response rating [10, 22]: 50

CCONC(=O)c1cc(CC)n(Cc2cccc(OC(F)(F)F)c2)n1 [Compound 72]
Velvetleaf plant response rating [1, 23]: 100 | Velvetleaf plant response rating [1, 15]: 70 | Corn plant response rating [2, 23]: 70 | Corn plant response rating [2, 15]: 50 | Velvetleaf plant response rating ([11]; 62 g ai/ha, scale 0 to 100): 5 | Plant response rating, Velvetleaf [11, 24]: 55 | Plant response rating, Velvetleaf [11, 25]: 35 | Plant response rating (scale of 0 to 100), Velvetleaf ([3]; Preemergence, 250 g ai/ha): 100 | Velvetleaf plant response rating [3, 26]: 20 | Plant response rating, Velvetleaf [3, 27]: 100 | Velvetleaf plant response rating [3, 28]: 100 | Foxtail, Giant plant response rating [5, 23]: 100 | Foxtail, Giant plant response rating [5, 15]: 70 | Wheat plant response rating ([12]; 62 g ai/ha, scale 0 to 100): 5 | Plant response rating, Wheat [12, 24]: 10 | Plant response rating, Wheat [12, 25]: 10 | Plant response rating (scale of 0 to 100), Crabgrass, Large ([6]; Preemergence, 250 g ai/ha): 98 | Crabgrass, Large plant response rating [6, 26]: 55 | Plant response rating, Crabgrass, Large [6, 27]: 95 | Crabgrass, Large plant response rating [6, 28]: 98 | Johnsongrass plant response rating ([13]; Postemergence, 31 g ai/ha): 0 | Johnsongrass plant response rating ([13]; postemergence, 62 g ai/ha): 0 | Plant response rating, Johnsongrass [13, 29]: 0 | Plant response rating, Johnsongrass [13, 30]: 0 | Plant response rating (scale of 0 to 100), Wheat ([7]; Preemergence, 250 g ai/ha): 85 | Wheat plant response rating [7, 26]: 5 | Plant response rating, Wheat [7, 27]: 20 | Wheat plant response rating [7, 28]: 50 | Pigweed plant response rating [8, 31]: 100 | Pigweed plant response rating [8, 22]: 90 | Velvetleaf plant response rating [10, 31]: 90 | Velvetleaf plant response rating [10, 22]: 80 | Lambsquarters plant response rating ([14]; Postemergence, 31 g ai/ha): 60 | Lambsquarters plant response rating ([14]; postemergence, 62 g ai/ha): 70 | Plant response rating, Lambsquarters [14, 29]: 98 | Plant response rating, Lambsquarters [14, 30]: 90

CCNC(=O)c1cc(CCF)n(Cc2ccnc(C(F)(F)F)c2)n1 [Compound 178]
Velvetleaf plant response rating (0 to 100 scale) [1, 32]: 30 | Velvetleaf plant response rating [1, 16]: 90 | Corn plant response rating (0 to 100 scale) [2, 32]: 0 | Corn plant response rating [2, 16]: 50 | Plant response rating, Velvetleaf [3, 19]: 10 | Velvetleaf plant response rating [3, 20]: 15 | Velvetleaf plant response rating [3, 33]: 55 | Plant response rating, Velvetleaf [3, 34]: 70 | Plant response rating, Rice [4]: 0 | Foxtail, Giant plant response rating (0 to 100 scale) [5, 32]: 90 | Foxtail, Giant plant response rating [5, 16]: 100 | Plant response rating, Crabgrass, Large [6, 19]: 30 | Crabgrass, Large plant response rating [6, 20]: 100 | Crabgrass, Large plant response rating [6, 33]: 95 | Plant response rating, Crabgrass, Large [6, 34]: 100 | Plant response rating, Wheat [7, 19]: 0 | Wheat plant response rating [7, 20]: 0 | Wheat plant response rating [7, 33]: 0 | Plant response rating, Wheat [7, 34]: 0 | Pigweed plant response rating [8, 21]: 100 | Pigweed plant response rating [8, 22]: 100 | Plant response rating, Sedge, Umbrella [9]: 85 | Velvetleaf plant response rating [10, 21]: 60 | Velvetleaf plant response rating [10, 22]: 40
